Experimental data reported in US20220177508A1, “C10-Cyclic Substituted 13-Membered Macrolides and Uses Thereof” (Zikani Therapeutics, Inc., priority 2018, published 2022).
In brackets after ≈: the same amount, converted by molar mass.

Tests used:
Assay type in all cases: cell-based
A. baumannii MP-15 = assay: Broth dilution MIC determination (CLSI), A. baumannii MP-15; conditions: Acinetobacter baumannii, MP15; strain MP-15, broth dilution; read-out: MIC A. baumanii MP-15
S. aureus MP-12 = assay: Broth dilution MIC determination (CLSI), S. aureus MP-12; conditions: Staphylococcus aureus, MP12; strain MP-12, broth dilution
P. aeruginosa MP-3 = assay: Broth dilution MIC determination (CLSI), P. aeruginosa MP-3; conditions: Pseudomonas aeruginosa, MP3; strain MP-3, broth dilution
K. pneumoniae MP-648 = assay: Broth dilution MIC determination (CLSI), K. pneumoniae MP-648; conditions: Klebsiella pneumoniae, MP648; strain MP-648, broth dilution
K. pneumoniae MP-546 = assay: Broth dilution MIC determination (CLSI), K. pneumoniae MP-546; conditions: Klebsiella pneumoniae, MP546; strain MP-546, broth dilution
E. coli MP-4 = assay: Broth dilution MIC determination (CLSI), E. coli MP-4; conditions: Escherichia coli, MP4; strain MP-4, broth dilution; read-out: MIC E. coli MP-4

Structure (SMILES)	MIC (A. baumannii MP-15) [µg/mL]	MIC (S. aureus MP-12) [µg/mL]	MIC (P. aeruginosa MP-3) [µg/mL]	MIC (K. pneumoniae MP-648) [µg/mL]	MIC (K. pneumoniae MP-546) [µg/mL]	MIC (E. coli MP-4) [µg/mL]
CCCN1CCC([C@]2(C)COC(=O)C(C)(C)C(=O)[C@H](C)[C@@H](O[C@@H]3O[C@H](C)C[C@H](N(C)C)[C@H]3O)[C@](C)(OC)C[C@@H](C)CN2C)CC1 [Compound 143, (3R,6R,8R,9R,10R)-9-(((2S,3R,4S,6R)-4-(dimethylamino)-3-hydroxy-6-methyltetrahydro-2H-pyran-2-yl)oxy)-8-methoxy-3,4,6,8,10,12,12-heptamethyl-3-(1-propylpiperidin-4-yl)-1-oxa-4-azacyclotridecane-11,13-dione]	> 32	> 32	> 32	< 4	< 4	< 4
CCN(C)CC(C)(C)CC(=O)N1CC([C@@H]2COC(=O)C(C)(C)C(=O)[C@H](C)[C@@H](O[C@@H]3O[C@H](C)C[C@H](N(C)C)[C@H]3O)[C@](C)(OC)C[C@@H](C)CN2C)C1 [Compound 122, (3R,6R,8R,9R,10R)-9-(((2S,3R,4S,6R)-4-(dimethylamino)-3-hydroxy-6-methyltetrahydro-2H-pyran-2-yl)oxy)-3-(1-(4-(ethyl(methyl)amino)-3,3-dimethylbutanoyl)azetidin-3-yl)-8-methoxy-4,6,8,10,12,12-hexamethyl-1-oxa-4-azacyclotridecane-11,13-dione]	> 32	4 to 32 (≈ 5.63 to 45 µM)	> 32	4 to 32 (≈ 5.63 to 45 µM)	4 to 32 (≈ 5.63 to 45 µM)	< 4
CO[C@]1(C)C[C@@H](C)CN(C)[C@H](C2CN(C(=O)CNC(C)(C)C)C2)COC(=O)C(C)(C)C(=O)[C@H](C)[C@H]1O[C@@H]1O[C@H](C)C[C@H](N(C)C)[C@H]1O [Compound 41, (3R,6R,8R,9R,10R)-3-(1-(tert-butylglycyl)azetidin-3-yl)-9-(((2S,3R,4S,6R)-4-(dimethylamino)-3-hydroxy-6-methyltetrahydro-2H-pyran-2-yl)oxy)-8-methoxy-4,6,8,10,12,12-hexamethyl-1-oxa-4-azacyclotridecane-11,13-dione]	> 32	4 to 32 (≈ 5.98 to 47.8 µM)	> 32	4 to 32 (≈ 5.98 to 47.8 µM)	< 4	< 4
COCC(C)N1CCC([C@H]2COC(=O)C(C)(C)C(=O)[C@H](C)[C@@H](O[C@@H]3O[C@H](C)C[C@H](N(C)C)[C@H]3O)[C@](C)(OC)C[C@@H](C)CN2C)CC1 (stereo partly drawn) [Compound 124, (3S,6R,8R,9R,10R)-9-(((2S,3R,4S,6R)-4-(dimethylamino)-3-hydroxy-6-methyltetrahydro-2H-pyran-2-yl)oxy)-8-methoxy-3-(1-(1-methoxypropan-2-yl)piperidin-4-yl)-4,6,8,10,12,12-hexamethyl-1-oxa-4-azacyclotridecane-11,13-dione]	> 32	4 to 32 (≈ 6.1 to 48.8 µM)	> 32	4 to 32 (≈ 6.1 to 48.8 µM)	< 4	< 4
CO[C@]1(C)C[C@@H](C)CN(C)[C@H](C2CN(CCC(C)C)C2)COC(=O)C(C)(C)C(=O)[C@H](C)[C@H]1O[C@@H]1O[C@H](C)C[C@H](N(C)C)[C@H]1O [Compound 51, (3R,6R,8R,9R,10R)-9-(((2S,3R,4S,6R)-4-(dimethylamino)-3-hydroxy-6-methyltetrahydro-2H-pyran-2-yl)oxy)-3-(1-isopentylazetidin-3-yl)-8-methoxy-4,6,8,10,12,12-hexamethyl-1-oxa-4-azacyclotridecane-11,13-dione]	4 to 32 (≈ 6.39 to 51.1 µM)	4 to 32 (≈ 6.39 to 51.1 µM)	> 32	4 to 32 (≈ 6.39 to 51.1 µM)	< 4	< 4
CO[C@]1(C)C[C@@H](C)CN(C)[C@H]([C@H]2C[C@@H](N(C)CC3CC3)C2)COC(=O)C(C)(C)C(=O)[C@H](C)[C@H]1O[C@@H]1O[C@H](C)C[C@H](N(C)C)[C@H]1O [Compound 18, (3R,6R,8R,9R,10R)-3-((1s,3S)-3-((cyclopropylmethyl)(methyl)amino)cyclobutyl)-9-(((2S,3R,4S,6R)-4-(dimethylamino)-3-hydroxy-6-methyltetrahydro-2H-pyran-2-yl)oxy)-8-methoxy-4,6,8,10,12,12-hexamethyl-1-oxa-4-azacyclotridecane-11,13-dione]	> 32	> 32	> 32	4 to 32 (≈ 6.27 to 50.2 µM)	4 to 32 (≈ 6.27 to 50.2 µM)	< 4
CO[C@]1(C)C[C@@H](C)CN(C)[C@H](C2CN(Cc3cc(C)on3)C2)COC(=O)C(C)(C)C(=O)[C@H](C)[C@H]1O[C@@H]1O[C@H](C)C[C@H](N(C)C)[C@H]1O [Compound 132, (3R,6R,8R,9R,10R)-9-(((2S,3R,4S,6R)-4-(dimethylamino)-3-hydroxy-6-methyltetrahydro-2H-pyran-2-yl)oxy)-8-methoxy-4,6,8,10,12,12-hexamethyl-3-(1-((5-methylisoxazol-3-yl)methyl)azetidin-3-yl)-1-oxa-4-azacyclotridecane-11,13-dione]	> 32	4 to 32 (≈ 6.15 to 49.2 µM)	> 32	> 32	4 to 32 (≈ 6.15 to 49.2 µM)	4 to 32 (≈ 6.15 to 49.2 µM)
CO[C@]1(C)C[C@@H](C)CN(C)[C@H](C2CN(Cc3ccn(C)n3)C2)COC(=O)C(C)(C)C(=O)[C@H](C)[C@H]1O[C@@H]1O[C@H](C)C[C@H](N(C)C)[C@H]1O [Compound 16, (3R,6R,8R,9R,10R)-9-(((2S,3R,4S,6R)-4-(dimethylamino)-3-hydroxy-6-methyltetrahydro-2H-pyran-2-yl)oxy)-8-methoxy-4,6,8,10,12,12-hexamethyl-3-(1-((1-methyl-1H-pyrazol-3-yl)methyl)azetidin-3-yl)-1-oxa-4-azacyclotridecane-11,13-dione]	> 32	4 to 32 (≈ 6.16 to 49.2 µM)	> 32	4 to 32 (≈ 6.16 to 49.2 µM)	4 to 32 (≈ 6.16 to 49.2 µM)	< 4
CO[C@]1(C)C[C@@H](C)CN(C)[C@H]([C@H]2C[C@H](N(C)CC3CC3)C2)COC(=O)C(C)(C)C(=O)[C@H](C)[C@H]1O[C@@H]1O[C@H](C)C[C@H](N(C)C)[C@H]1O [Compound 24, (3R,6R,8R,9R,10R)-3-((1r,3R)-3-((cyclopropylmethyl)(methyl)amino)cyclobutyl)-9-(((2S,3R,4S,6R)-4-(dimethylamino)-3-hydroxy-6-methyltetrahydro-2H-pyran-2-yl)oxy)-8-methoxy-4,6,8,10,12,12-hexamethyl-1-oxa-4-azacyclotridecane-11,13-dione]	> 32	4 to 32 (≈ 6.27 to 50.2 µM)	> 32	< 4	< 4	< 4
CO[C@]1(C)C[C@@H](C)CN(C)[C@H](C2CN(Cc3cnn(C)c3)C2)COC(=O)C(C)(C)C(=O)[C@H](C)[C@H]1O[C@@H]1O[C@H](C)C[C@H](N(C)C)[C@H]1O [Compound 49, (3R,6R,8R,9R,10R)-9-(((2S,3R,4S,6R)-4-(dimethylamino)-3-hydroxy-6-methyltetrahydro-2H-pyran-2-yl)oxy)-8-methoxy-4,6,8,10,12,12-hexamethyl-3-(1-((1-methyl-1H-pyrazol-4-yl)methyl)azetidin-3-yl)-1-oxa-4-azacyclotridecane-11,13-dione]	> 32	4 to 32 (≈ 6.16 to 49.2 µM)	> 32	4 to 32 (≈ 6.16 to 49.2 µM)	< 4	< 4
CCCN1C[C@H](C)C[C@@](C)(OC)[C@H](O[C@@H]2O[C@H](C)C[C@H](N(C)C)[C@H]2O)[C@@H](C)C(=O)C(C)(C)C(=O)OC[C@H]1[C@H]1C[C@H](N(C)CC)C1 [Compound 94, (3R,6R,8R,9R,10R)-9-(((2S,3R,4S,6R)-4-(dimethylamino)-3-hydroxy-6-methyltetrahydro-2H-pyran-2-yl)oxy)-3-((1r,3R)-3-(ethyl(methyl)amino)cyclobutyl)-8-methoxy-6,8,10,12,12-pentamethyl-4-propyl-1-oxa-4-azacyclotridecane-11,13-dione]	> 32	4 to 32 (≈ 6.25 to 50 µM)	> 32	4 to 32 (≈ 6.25 to 50 µM)	< 4	< 4
CO[C@]1(C)C[C@@H](C)CN(C)[C@H](C2CN(C(=O)CCN(C)CC(C)C)C2)COC(=O)C(C)(C)C(=O)[C@H](C)[C@H]1O[C@@H]1O[C@H](C)C[C@H](N(C)C)[C@H]1O [Compound 125, (3R,6R,8R,9R,10R)-9-(((2S,3R,4S,6R)-4-(dimethylamino)-3-hydroxy-6-methyltetrahydro-2H-pyran-2-yl)oxy)-3-(1-(3-(isobutyl(methyl)amino)propanoyl)azetidin-3-yl)-8-methoxy-4,6,8,10,12,12-hexamethyl-1-oxa-4-azacyclotridecane-11,13-dione]	> 32	> 32	> 32	4 to 32 (≈ 5.74 to 45.9 µM)	4 to 32 (≈ 5.74 to 45.9 µM)	< 4
CCN(C)CCCC(=O)N1CC([C@@H]2COC(=O)C(C)(C)C(=O)[C@H](C)[C@@H](O[C@@H]3O[C@H](C)C[C@H](N(C)C)[C@H]3O)[C@](C)(OC)C[C@@H](C)CN2C)C1 [Compound 135, (3R,6R,8R,9R,10R)-9-(((2S,3R,4S,6R)-4-(dimethylamino)-3-hydroxy-6-methyltetrahydro-2H-pyran-2-yl)oxy)-3-(1-(4-(ethyl(methyl)amino)butanoyl)azetidin-3-yl)-8-methoxy-4,6,8,10,12,12-hexamethyl-1-oxa-4-azacyclotridecane-11,13-dione]	> 32	> 32	> 32	4 to 32 (≈ 5.86 to 46.9 µM)	> 32	4 to 32 (≈ 5.86 to 46.9 µM)
